Measured values reported in article PMC5707495, “Systematic re-evaluation of the bis(2-hydroxyethyl)disulfide (HEDS) assay reveals an alternative mechanism and activity of glutaredoxins” (Chemical Science, 2015).

Legend:
ScGrx7 = biological target: T1, ScGrx7 (Saccharomyces cerevisiae, UniProt P38068); experiment: HEDS assay coupled to glutathione reductase, NADPH […] nm; Km replot and Dixon plot; format: biochemical
T1 construct: gene GRX7; recombinant, N-terminal MRGS(H)6 tag kept, altered stop codon; E. coli XL1-Blue; non-covalent dimer; monothiol, one Cys per subunit
T1 sequence (P38068 37-203 limits assumed): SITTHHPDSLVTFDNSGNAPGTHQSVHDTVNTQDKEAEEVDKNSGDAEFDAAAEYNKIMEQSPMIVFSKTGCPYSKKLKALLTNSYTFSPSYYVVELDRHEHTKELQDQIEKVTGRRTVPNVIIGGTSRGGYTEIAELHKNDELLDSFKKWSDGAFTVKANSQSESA

PfGrx = biological target: T2, PfGrx (Plasmodium falciparum, UniProt Q9NLB2); experiment: HEDS assay coupled to glutathione reductase, NADPH […] nm; format: biochemical; conditions: co-substrate GSH; sequential kinetics; pH 8.0, 25 °C
T2 construct: gene PF3D7_0306300; dithiol Grx with Cys29 and Cys32 (CPYC motif) and Cys88 (GGC motif)
T2 sequence (Q9NLB2 1-111): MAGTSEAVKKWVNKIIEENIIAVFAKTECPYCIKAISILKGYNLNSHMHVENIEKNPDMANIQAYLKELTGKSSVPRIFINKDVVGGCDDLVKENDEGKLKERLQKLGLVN

SMILES	Ki (ScGrx7) [µM]	HEDS assay coupled to glutathione reductase, NADPH 340 nm (PfGrx)
OCCS [2-ME]	180	–
OCCSSCCO [HEDS, bis(2-hydroxyethyl)disulfide]	–	HEDS assays with PfGrx yielded sequential kinetic patterns
